Measured values reported in EPA's ToxRefDB 2.

Tests used:
rat [1] = conditions: Sub-acute repeat dose toxicity; sprague dawley; Oral; Gavage/Intubation; dose end: 1 month; group: systemic; systemic / clinical chemistry / cholesterol / cholesterol + systemic / clinical chemistry / globulins / globulins + systemic / hematology / …
rat [2] = conditions: Prenatal developmental toxicity study; sprague dawley; Oral; Gavage/Intubation; dose end: 17 GD; group: maternal; reproductive / reproductive performance / estrous cycle / corpora lutea + reproductive / reproductive performance / postimplantation loss / …
rabbit [3] = conditions: Prenatal developmental toxicity study, new zealand white, Oral, Gavage/Intubation, dose end: 19 GD
rabbit [4] = conditions: Prenatal developmental toxicity study, new zealand white, Oral, Gavage/Intubation, dose end: 19 GD; remark: listed apart in the source
rat [5] = conditions: Sub-acute repeat dose toxicity; fischer; Oral; Feed; dose end: 4 week; group: systemic; systemic / in life observation / body weight / body weight gain
rat [6] = conditions: Carcinogenicity, fischer, Oral, Feed, dose end: 59 week, group: systemic
mouse [7] = conditions: Carcinogenicity; b6c3f1; Oral; Feed; dose end: 78 week; group: systemic; systemic / in life observation / body weight / body weight + systemic / pathology microscopic / liver / cytoplasmic alteration + systemic / …
rat [8] = conditions: Subchronic oral toxicity in rodents, fischer, Feed, dose end: 13 week, group: systemic
mouse [9] = conditions: Subchronic oral toxicity in rodents, b6c3f1, Feed, dose end: 13 week, group: systemic, systemic / in life observation / body weight / body weight gain
rat [10] = conditions: Prenatal developmental toxicity study, sprague dawley, Inhalation, Whole-Body, dose end: 15 GD, group: maternal
rat [11] = conditions: Subchronic inhalation toxicity, fischer, Whole-Body, dose end: 14 week, group: systemic
rat [12] = conditions: Acute inhalation toxicity, fischer, Whole-Body, dose end: 2 week, group: systemic
rat [13] = conditions: Prenatal developmental toxicity study, sprague dawley, Inhalation, Whole-Body, dose end: 15 GD, group: maternal; remark: listed apart in the source
rat [14] = conditions: Developmental neurotoxicity study; sprague dawley; Oral; Feed; dose end: 48 PND; group: cannot be grouped; developmental / developmental landmark / eye opening / eye opening + reproductive / offspring survival early / litter size / litter size + …
mouse [15] = conditions: Carcinogenicity; other; Oral; Water; dose end: 36 week; group: systemic; systemic / pathology microscopic / liver / adenoma + systemic / organ weight / liver / absolute + systemic / organ weight / liver / relative…
rat [16] = conditions: Chronic toxicity, fischer, Oral, Feed, dose end: 104 week, group: systemic
rat [17] = conditions: Developmental neurotoxicity study; sprague dawley; Oral; Gavage/Intubation; dose end: 125 PND; group: cannot be grouped; systemic / in life observation / body weight / offspring (pup) weight
rat [18] = conditions: Peri- and post-natal toxicity study (Segment III), sprague dawley, Oral, Gavage/Intubation, dose end: 54 PND
mouse [19] = conditions: Carcinogenicity; b6c3f1; Oral; Feed; dose end: 78 week; group: systemic; systemic / in life observation / body weight / body weight
[20] = group: developmental, developmental / developmental malformation / bone / domed head + developmental / developmental malformation / brain / hydrocephaly + …
[21] = group: maternal, systemic / in life observation / clinical signs / discharge on cageboard + systemic / in life observation / food consumption / food …
[22] = group: developmental, developmental / developmental malformation / bone / domed head + developmental / developmental malformation / bone / fused + developmental…
[23] = group: maternal, systemic / in life observation / body weight / body weight gain + systemic / in life observation / clinical signs / defecation + systemic / …
[24] = systemic / in life observation / body weight / body weight
[25] = systemic / in life observation / body weight / body weight gain + systemic / pathology microscopic / bone marrow / depletion + systemic / …
[26] = systemic / in life observation / body weight / body weight gain + systemic / pathology microscopic / bone marrow / hyperplasia + systemic / …
[27] = systemic / in life observation / body weight / body weight + systemic / in life observation / body weight / body weight gain + systemic / in…
[28] = systemic / pathology microscopic / nose / hyperplasia + systemic / pathology microscopic / nose / hypertrophy + systemic / pathology …
[29] = systemic / in life observation / body weight / body weight + systemic / in life observation / clinical signs / body temperature + systemic…
[30] = systemic / organ weight / liver / relative to body weight + systemic / pathology gross / liver / discolored + systemic / pathology gross / …
[31] = group: developmental, developmental / developmental landmark / vaginal opening / vaginal opening + developmental / developmental landmark / preputial separation…
[32] = group: parental, systemic / in life observation / clinical signs / ataxia + systemic / in life observation / clinical signs / prostration + systemic / organ …
[33] = group: parental, systemic / organ weight / adrenal gland / absolute + systemic / organ weight / liver / absolute

## CC(=O)NC1(c2cccc(F)c2)CCN(CC[C@@]2(c3ccc(Cl)c(Cl)c3)CN(c3ccccc3)C(=O)CO2)CC1.O=C(O)CCC(=O)O
Rat [1]
  LEL: 200 mg/kg/day
  LOAEL: 200 mg/kg/day
  NEL: 30 mg/kg/day
  NOAEL: 30 mg/kg/day
Rat [2]
  LEL: 500 mg/kg/day
  LOAEL: > 1500 mg/kg/day
  NEL: < 500 mg/kg/day
  NOAEL: ≥ 1500 mg/kg/day
Rabbit [3]; [20]
  LEL: 1000 mg/kg/day
  LOAEL: 1000 mg/kg/day
  NEL: 500 mg/kg/day
  NOAEL: 500 mg/kg/day
Rabbit [3]; [21]
  LEL: 1000 mg/kg/day
  LOAEL: 1000 mg/kg/day
  NEL: 500 mg/kg/day
  NOAEL: 500 mg/kg/day
Rabbit [4]; [22]
  LEL: 1000 mg/kg/day
  LOAEL: 1000 mg/kg/day
  NEL: 200 mg/kg/day
  NOAEL: 200 mg/kg/day
Rabbit [4]; [23]
  LEL: 1000 mg/kg/day
  LOAEL: 1000 mg/kg/day
  NEL: 200 mg/kg/day
  NOAEL: 200 mg/kg/day

## CN(C)c1ccc(Cc2ccc(N(C)C)cc2)cc1 [4,4'-Methylenebis(N,N-dimethylaniline)]
Rat [5]
  LEL: 7.25 mg/kg/day
  LOAEL: 34 mg/kg/day
  NEL: < 7.25 mg/kg/day
  NOAEL: 15.8 mg/kg/day
Rat [6]; [24]
  LEL: 18.8 mg/kg/day
  LOAEL: 37.5 mg/kg/day
  NEL: < 18.8 mg/kg/day
Rat [6]; systemic / in life observation / body weight / body weight + systemic / pathology microscopic / thyroid gland / adenoma + systemic / …
  NOAEL: 18.8 mg/kg/day
Mouse [7]
  LEL: 188 mg/kg/day
  LOAEL: 188 mg/kg/day
  NEL: < 188 mg/kg/day
  NOAEL: < 188 mg/kg/day

## O=C1O[C@H]([C@@H](O)CO)C(O)=C1O [L-Ascorbic acid]
Rat [8]; [25]
  LOAEL: 5000 mg/kg/day
  NOAEL: 2500 mg/kg/day
Rat [8]; [26]
  LEL: 1250 mg/kg/day
  NEL: < 1250 mg/kg/day
Mouse [9]
  LEL: 7500 mg/kg/day
  LOAEL: 7500 mg/kg/day
  NEL: 3750 mg/kg/day
  NOAEL: 3750 mg/kg/day

## CCN(CC)CCO [N,N-Diethylethanolamine]
Rat [10]; [27]
  LOAEL: > 200 ppm
  NEL: 10 ppm
  NOAEL: ≥ 200 ppm
Rat [10]; systemic / in life observation / body weight / body weight gain
  LEL: 50 ppm
Rat [11]; [28]
  NEL: 10 ppm
  NOAEL: 10 ppm
Rat [11]; systemic / pathology microscopic / nose / hyperplasia + systemic / pathology microscopic / nose / infiltration cellular
  LOAEL: 25 ppm
Rat [11]; systemic / pathology microscopic / nose / hyperplasia + systemic / pathology microscopic / nose / infiltration cellular + systemic / …
  LEL: 25 ppm
Rat [12]; [29]
  LOAEL: > 300 ppm
  NEL: 10 ppm
  NOAEL: ≥ 300 ppm
Rat [12]; systemic / pathology microscopic / nose / infiltration cellular + systemic / pathology microscopic / nose / metaplasia
  LEL: 55 ppm
Rat [13]; [27]
  LOAEL: > 100 ppm
  NEL: 33 ppm
  NOAEL: ≥ 100 ppm
Rat [13]; systemic / in life observation / body weight / body weight gain + systemic / in life observation / food consumption / food consumption
  LEL: 66 ppm

## CCC1(c2ccccc2)C(=O)NC(=O)NC1=O [Phenobarbital]
Rat [14]
  LEL: 37.5 mg/kg/day
  LOAEL: > 37.5 mg/kg/day
  NEL: < 37.5 mg/kg/day
  NOAEL: ≥ 37.5 mg/kg/day
Mouse [15]
  LEL: 75 mg/kg/day
  LOAEL: > 75 mg/kg/day
  NEL: < 75 mg/kg/day
  NOAEL: ≥ 75 mg/kg/day
Rat [16]; [30]
  LOAEL: > 19 mg/kg/day
  NEL: 1.1 mg/kg/day
  NOAEL: ≥ 19 mg/kg/day
Rat [16]; systemic / organ weight / liver / relative to body weight + systemic / pathology gross / liver / mass + systemic / pathology microscopic / …
  LEL: 4.6 mg/kg/day
Rat [17]
  LEL: 40 mg/kg/day
  LOAEL: > 80 mg/kg/day
  NEL: < 40 mg/kg/day
  NOAEL: ≥ 80 mg/kg/day
Rat [18]; group: developmental, developmental / developmental landmark / vaginal opening / vaginal opening
  NEL: 50 mg/kg/day
Rat [18]; [31]
  LEL: 100 mg/kg/day
  LOAEL: > 100 mg/kg/day
  NOAEL: ≥ 100 mg/kg/day
Rat [18]; [32]
  LOAEL: > 100 mg/kg/day
  NOAEL: ≥ 100 mg/kg/day
Rat [18]; [33]
  LEL: 25 mg/kg/day
  NEL: < 25 mg/kg/day

## N[C@@H](Cc1c[nH]c2ccccc12)C(=O)O [l-Tryptophan]
Mouse [19]
  LEL: 3750 mg/kg/day
  LOAEL: 3750 mg/kg/day
  NEL: < 3750 mg/kg/day
  NOAEL: < 3750 mg/kg/day
